According to patent publication US10428083B2, “Heterocyclylmethyl-thienouracile as antagonists of the adenosine-A2B-receptor” (BAYER PHARMA AKTIENGESELLSCHAFT, priority 2015, dated 2019):

Target: human adenosine A2b receptor (Homo sapiens (Human), UniProt P29275)
Experiment: Cellular in vitro reporter gene test for A2b receptor activity (CHO-K1, CRE-luciferase, NECA stimulation)
Assay type: cell-based
Details: recombinant CHO-K1 cell line, CRE-luciferase reporter, antagonism of EC50 concentration of NECA; in some cases means of several determinations, rounded to two significant figures; read-out: A2b receptor IC50
Outline: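 CHO-K1 cells with CRE-driven luciferase; antagonists co-incubated with NECA at its EC50, determined in a pre-experiment on each test day. Luciferase read by luminescence 3 h after NECA addition.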

human adenosine A2b receptor, sequence (P29275 whole entry): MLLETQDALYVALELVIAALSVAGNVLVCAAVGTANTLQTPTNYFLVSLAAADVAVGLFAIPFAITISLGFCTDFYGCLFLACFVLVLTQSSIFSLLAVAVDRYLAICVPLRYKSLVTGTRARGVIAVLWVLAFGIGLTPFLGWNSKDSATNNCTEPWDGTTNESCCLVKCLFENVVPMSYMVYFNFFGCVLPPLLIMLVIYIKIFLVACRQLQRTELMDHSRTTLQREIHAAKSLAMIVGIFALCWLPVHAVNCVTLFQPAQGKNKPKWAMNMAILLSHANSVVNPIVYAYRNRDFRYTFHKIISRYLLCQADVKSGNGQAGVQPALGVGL

IC50 [nM]	Compound
79	Cc1c(CN2CCNC2=O)sc2c1c(=O)n(CC(F)F)c(=O)n2CC1CCO1 (single isomer, unassigned) [Example 217, 3-(2,2-Difluoroethyl)-5-methyl-1-(oxetan-2-ylmethyl)-6-[(2-oxoimidazolidin-1-yl)methyl]thieno[2,3-d]pyrimidine-2,4(1H,3H)-dione]
4.4	Cc1c(CN2CCNC2=O)sc2c1c(=O)n(CC(C)(C)C)c(=O)n2CCCF [Example 201, 3-(2,2-Dimethylpropyl)-1-(3-fluoropropyl)-5-methyl-6-[(2-oxoimidazolidin-1-yl)methyl]thieno[2,3-d]pyrimidine-2,4(1H,3H)-dione]
30	CCn1c(=O)c2c(C)c(CN3CCNC3=O)sc2n(CC2CCCCO2)c1=O (single isomer, unassigned) [Example 180, 3-Ethyl-5-methyl-6-[(2-oxoimidazolidin-1-yl)methyl]-1-(tetrahydro-2H-pyran-2-ylmethyl)thieno[2,3-d]pyrimidine-2,4(1H,3H)-dione]
9.7	Cc1c(CN2CCNC2=NC#N)sc2c1c(=O)n(CC(C)(C)C)c(=O)n2CC1CCCO1 (single isomer, unassigned) [Example 447, [1-{[3-(2,2-Dimethylpropyl)-5-methyl-2,4-dioxo-1-(tetrahydrofuran-2-ylmethyl)-1,2,3,4-tetrahydrothieno[2,3-d]pyrimidin-6-yl]methyl}imidazolidin-2-ylidene]cyanamide]
39	CCn1c(=O)c2c(C)c(CN3CCNC3=O)sc2n(CC(C)OC)c1=O (single isomer, unassigned; enantiomer 1) [Example 63, 3-Ethyl-1-(2-methoxypropyl)-5-methyl-6-[(2-oxoimidazolidin-1-yl)methyl]thieno[2,3-d]pyrimidine-2,4(1H,3H)-dione (Enantiomer 1)]
30	COC(=O)N=C1NCCN1Cc1sc2c(c1C)c(=O)n(CC(F)(F)F)c(=O)n2CC1CCO1 (single isomer, unassigned) [Example 467, Methyl [1-{[5-methyl-1-(oxetan-2-ylmethyl)-2,4-dioxo-3-(2,2,2-trifluoroethyl)-1,2,3,4-tetrahydrothieno[2,3-d]pyrimidin-6-yl]methyl}imidazolidin-2-ylidene]carbamate]
6.5	Cc1c(CN2CCNC2=S)sc2c1c(=O)n(CC(F)F)c(=O)n2CC1COC1 [Example 165, 3-(2,2-Difluoroethyl)-5-methyl-1-(oxetan-3-ylmethyl)-6-[(2-thioxoimidazolidin-1-yl)methyl]thieno[2,3-d]pyrimidine-2,4(1H,3H)-dione]
4.7	Cc1c(CN2CCNC2=O)sc2c1c(=O)n(C(C)C)c(=O)n2CCCF [Example 314, 1-(3-Fluoropropyl)-3-isopropyl-5-methyl-6-[(2-oxoimidazolidin-1-yl)methyl]thieno[2,3-d]pyrimidine-2,4(1H,3H)-dione]
4.1	Cc1c(CN2CCNC2=S)sc2c1c(=O)n(CC(C)C)c(=O)n2CC1CCO1 (single isomer, unassigned) [Example 148, 3-Isobutyl-5-methyl-1-(oxetan-2-ylmethyl)-6-[(2-thioxoimidazolidin-1-yl)methyl]thieno[2,3-d]pyrimidine-2,4(1H,3H)-dione]
6.1	COC(=O)N=C1NCCN1Cc1sc2c(c1C)c(=O)n(CC(F)(F)F)c(=O)n2CC1CCCO1 (single isomer, unassigned) [Example 468, Methyl [1-{[5-methyl-2,4-dioxo-1-(tetrahydrofuran-2-ylmethyl)-3-(2,2,2-trifluoroethyl)-1,2,3,4-tetrahydrothieno[2,3-d]pyrimidin-6-yl]methyl}imidazolidin-2-ylidene]carbamate]
1.2	CCCCn1c(=O)n(CC)c(=O)c2c(C)c(CN3CCNC3=O)sc21 [Example 78, 1-Butyl-3-ethyl-5-methyl-6-[(2-oxoimidazolidin-1-yl)methyl]thieno[2,3-d]pyrimidine-2,4(1H,3H)-dione]
17	Cc1c(CN2CCNC2=NC#N)sc2c1c(=O)n(CC(C)(C)C)c(=O)n2CC1CCCO1 (single isomer, unassigned) [Example 448, [1-{[3-(2,2-Dimethylpropyl)-5-methyl-2,4-dioxo-1-(tetrahydrofuran-2-ylmethyl)-1,2,3,4-tetrahydrothieno[2,3-d]pyrimidin-6-yl]methyl}imidazolidin-2-ylidene]cyanamide]

The remaining lines, values behind:

Compound	IC50 [nM]
CCOCCn1c(=O)c2c(C)c(CN3CCNC(=O)C3=O)sc2n(CCOC)c1=O [Example 404, 6-[(2,3-Dioxopiperazin-1-yl)methyl]-3-(2-ethoxyethyl)-1-(2-methoxyethyl)-5-methylthieno[2,3-d]pyrimidine-2,4(1H,3H)-dione]	120
CCn1c(=O)c2c(C)c(CN3CCNC3=S)sc2n(CCS(C)(=O)=O)c1=O [Example 295, 3-Ethyl-5-methyl-1-[2-(methylsulphonyl)ethyl]-6-[(2-thioxoimidazolidin-1-yl)methyl]thieno[2,3-d]pyrimidine-2,4(1H,3H)-dione]	220
Cc1c(Cn2cc[nH]c2=O)sc2c1c(=O)n(CC(C)(C)C)c(=O)n2CCC(F)(F)F [Example 505, 3-(2,2-Dimethylpropyl)-5-methyl-6-[(2-oxo-2,3-dihydro-H-imidazol-1-yl)methyl]-1-(3,3,3-trifluoropropyl)thieno[2,3-d]pyrimidine-2,4(1H,3H)-dione]	5
Cc1c(CN2CCNC2=S)sc2c1c(=O)n(CC(F)(F)F)c(=O)n2CCCF [Example 40, 1-(3-Fluoropropyl)-5-methyl-6-[(2-thioxoimidazolidin-1-yl)methyl]-3-(2,2,2-trifluoroethyl)thieno[2,3-d]pyrimidine-2,4(1H,3H)-dione]	7
CCn1c(=O)c2c(C)c(CN3CCNC(=O)C3=O)sc2n(CF)c1=O [Example 393, 6-[(2,3-Dioxopiperazin-1-yl)methyl]-3-ethyl-1-(fluoromethyl)-5-methylthieno[2,3-d]pyrimidine-2,4(1H,3H)-dione]	45
Cc1c(Cn2cc[nH]c2=O)sc2c1c(=O)n(C(C)C)c(=O)n2CC1CCCO1 (racemic) [Example 247, 3-Isopropyl-5-methyl-6-[(2-oxo-2,3-dihydro-1H-imidazol-1-yl)methyl]-1-(tetrahydrofuran-2-ylmethyl)thieno[2,3-d]pyrimidine-2,4(1H,3H)-dione]	8.9
COC(=O)N=C1NCCN1Cc1sc2c(c1C)c(=O)n(CC(C)OC)c(=O)n2CCC(F)(F)F (racemic) [Example 472, Methyl [1-{[3-(2-methoxypropyl)-5-methyl-2,4-dioxo-1-(3,3,3-trifluoropropyl)-1,2,3,4-tetrahydrothieno[2,3-d]pyrimidin-6-yl]methyl}imidazolidin-2-ylidene]carbamate]	6.7
C=C(C)CCn1c(=O)c2c(C)c(CN3CCNC3=O)sc2n(CCOC)c1=O [Example 319, 1-(2-Methoxyethyl)-5-methyl-3-(3-methylbut-3-en-1-yl)-6-[(2-oxoimidazolidin-1-yl)methyl]thieno[2,3-d]pyrimidine-2,4(1H,3H)-dione]	2.4
Cc1c(Cn2nc[nH]c2=O)sc2c1c(=O)n(C(C)C)c(=O)n2CCCF [Example 423, 1-(3-Fluoropropyl)-3-isopropyl-5-methyl-6-[(5-oxo-4,5-dihydro-1H-1,2,4-triazol-1-yl)methyl]thieno[2,3-d]pyrimidine-2,4(1H,3H)-dione]	55
Cc1c(CN2CCNC2=S)sc2c1c(=O)n(CC(C)C)c(=O)n2CCCF [Example 144, 1-(3-Fluoropropyl)-3-isobutyl-5-methyl-6-[(2-thioxoimidazolidin-1-yl)methyl]thieno[2,3-d]pyrimidine-2,4(1H,3H)-dione]	1.5
CCn1c(=O)c2c(C)c(CN3CCCS3(=O)=O)sc2n(CCOC)c1=O [Example 17, 6-[(1,1-Dioxido-1,2-thiazolidin-2-yl)methyl]-3-ethyl-1-(2-methoxyethyl)-5-methylthieno[2,3-d]pyrimidine-2,4(1H,3H)-dione]	16
CCn1c(=O)c2c(C)c(CN3CC(NC(=O)OC(C)(C)C)CC3=O)sc2n(CCC(F)(F)F)c1=O (racemic) [Example 8, tert-Butyl (1-{[3-ethyl-5-methyl-2,4-dioxo-1-(3,3,3-trifluoropropyl)-1,2,3,4-tetrahydrothieno[2,3-d]pyrimidin-6-yl]methyl}-5-oxopyrrolidin-3-yl)carbamate (racemate)]	120
Cc1c(CN2CCNC2=O)sc2c1c(=O)n(CC(C)(C)O)c(=O)n2CCC(F)(F)F [Example 227, 3-(2-Hydroxy-2-methylpropyl)-5-methyl-6-[(2-oxoimidazolidin-1-yl)methyl]-1-(3,3,3-trifluoropropyl)thieno[2,3-d]pyrimidine-2,4(1H,3H)-dione]	22
CCn1c(=O)c2c(C)c(CN3CCNC(=O)C3=O)sc2n(CCCOC)c1=O [Example 396, 6-[(2,3-Dioxopiperazin-1-yl)methyl]-3-ethyl-1-(3-methoxypropyl)-5-methylthieno[2,3-d]pyrimidine-2,4(1H,3H)-dione]	93
CCOCCn1c(=O)c2c(C)c(CN3CCNC3=O)sc2n(CCC(F)(F)F)c1=O [Example 326, 3-(2-Ethoxyethyl)-5-methyl-6-[(2-oxoimidazolidin-1-yl)methyl]-1-(3,3,3-trifluoropropyl)thieno[2,3-d]pyrimidine-2,4(1H,3H)-dione]	10
CCn1c(=O)c2c(C)c(CN3CCNC3=S)sc2n(CCC(F)(F)F)c1=O [Example 28, 3-Ethyl-5-methyl-6-[(2-thioxoimidazolidin-1-yl)methyl]-1-(3,3,3-trifluoropropyl)thieno[2,3-d]pyrimidine-2,4(1H,3H)-dione]	1.9
Cc1c(CN2CCNC2=O)sc2c1c(=O)n(CC(C)(C)F)c(=O)n2CCC(F)(F)F [Example 225, 3-(2-Fluoro-2-methylpropyl)-5-methyl-6-[(2-oxoimidazolidin-1-yl)methyl]-1-(3,3,3-trifluoropropyl)thieno[2,3-d]pyrimidine-2,4(1H,3H)-dione]	12
